Assay results from patent US20080108562A1, “Treatment Of Bone Metastases By Means Of Pth Receptor Agonists” (Ferring B.V., priority 2004, published 2008).
Entries after “also recorded” stand apart in the source; their conditions may differ.

Experiments:
PTH receptor = biological target: T1, PTH receptor (Homo sapiens, UniProt Q03431); conditions: bone-related activities; relative to native 84 amino-acid hormone; cited from earlier work
T1 sequence (Q03431 27-593): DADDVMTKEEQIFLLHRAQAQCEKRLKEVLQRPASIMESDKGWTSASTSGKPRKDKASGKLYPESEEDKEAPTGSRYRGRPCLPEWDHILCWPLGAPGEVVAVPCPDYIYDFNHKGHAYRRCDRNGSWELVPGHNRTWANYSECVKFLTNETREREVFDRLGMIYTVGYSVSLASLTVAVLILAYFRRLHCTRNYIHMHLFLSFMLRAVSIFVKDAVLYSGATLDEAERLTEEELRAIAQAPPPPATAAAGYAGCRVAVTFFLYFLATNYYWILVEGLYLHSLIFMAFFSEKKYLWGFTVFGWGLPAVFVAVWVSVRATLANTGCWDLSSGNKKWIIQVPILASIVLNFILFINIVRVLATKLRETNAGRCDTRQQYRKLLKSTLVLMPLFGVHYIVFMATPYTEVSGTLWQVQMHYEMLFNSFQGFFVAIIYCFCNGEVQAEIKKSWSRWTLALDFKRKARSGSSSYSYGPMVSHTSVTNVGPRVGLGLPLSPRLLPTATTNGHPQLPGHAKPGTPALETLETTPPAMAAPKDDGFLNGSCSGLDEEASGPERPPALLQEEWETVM

[1] = tested on: adult C3H mice with murine CCL-11 (NCTC clone 2472) osteolytic sarcoma cells injected into the distal femur; assay: Flinching and guarding behavior in animal model for metastatic bone disease; type: in vivo; conditions: metastatic bone tumor animals, day 14
Experimental: (§1) An animal model for metastatic bone disease was established in adult C3H mice with murine sarcoma cells as described in Honore, et al., Neuroscience. (2000) 98(3):585-98 (see also Clohisy, et al. J Orthop Res. (1996) 14(3):396-402). In brief, murine CCL-11 (NCTC clone 2472) osteolytic sarcoma cells were injected into the distal femur. The injection site was closed with dental grade amalgam. Wounds were closed with wound clips. Wound clips were removed at day 6 to prevent interference with behavioral testing. Sham-injected and sarcoma-injected mice received daily subcutaneous injections of either 10 μl/kg vehicle or 10 μl/kg vehicle containing PTH (1-34) at 80 μg/ml concentration beginning after testing and radiographs were taken 6 d after injection of sarcoma cells. Treatment with PTH (1-34) or vehicle ended 14 d after injection, when final behavioral testing was done and the animals sacrificed.
To assess flinching and guarding behavior, animals were placed in raised plexiglass chambers with a wire grid floor for observation of flinching and guarding of the right hindlimb. The mice were allowed to acclimate to the chamber for 20 minutes. Guarding and flinching behaviors of each mouse were measured for 2 minutes. The number of flinches were counted, and the time spent guarding the foot (the foot is lifted off of the floor) was measured.

[2] = tested on: adult C3H mice with murine CCL-11 (NCTC clone 2472) osteolytic sarcoma cells injected into the distal femur; assay: Spontaneous limb use in animal model for metastatic bone disease; type: in vivo; conditions: metastatic bone tumor animals, day 14
Experimental: as §1
Spontaneous limb use was assessed as described by Luger et al (2001). The mouse was placed in an empty mouse pan and observed while walking across the pan in a continuous motion. Limping and/or guarding behavior of the right (sarcoma treated) hindlimb was rated on the following scale: 0=complete lack of use, 1=partial non-use, 2=limping and guarding, 3=limping, 4=normal walking.

[3] = tested on: adult C3H mice with murine CCL-11 (NCTC clone 2472) osteolytic sarcoma cells injected into the distal femur; assay: Tactile allodynia (von Frey paw withdrawal threshold) in animal model for metastatic bone disease; type: in vivo; conditions: metastatic bone tumor animals, day 14
Experimental: as §1, with “Treatment with PTH (1-34) or vehicle ended 14 d after injection, when final behavioral testing was done and the animals sacrificed.” left out
Tactile allodynia was determined in the manner described by Chaplan et al. J Neurosci Methods (1994) 53(1):55-63. Paw withdrawal threshold was determined in response to probing with calibrated von Frey filaments. […] The 50% paw withdrawal threshold was determined by the non-parametric method of Dixon (Dixon, Annu Rev Pharmacol Toxicol 20:441-462, 1980). […] The 50% paw withdrawal threshold was determined as (10^[Xf+kδ])/10,000, where Xf=the value of the last von Frey filament employed, k=Dixon value for the positive/negative pattern, and δ=the mean (log) difference between stimuli. […]

[4] = tested on: adult C3H mice with murine CCL-11 (NCTC clone 2472) osteolytic sarcoma cells injected into the distal femur; assay: Radiological analysis of bone density in animal model for metastatic bone disease; type: in vivo
Experimental: as §1
[…] Mice were lightly anesthetized to prevent movement during the x-ray. The radiographs of the mouse femurs were scanned at maximal resolution (2400 dpi) and saved in digital grayscale format (TIFF). The grayscale levels were standardized for all radiographs by setting the amalgam region to white (grayscale value of 255) and the lower limit of the grayscale was set to the darkest pixels of the scanned image. The grayscale values correspond to the luminosity of the scanned images.
The images were analyzed with Metamorph (Universal Imaging Corp, West Chester, Pa.). The bones were divided into 3 equal regions. Data were taken from the lower region at the site were sarcoma cells were injected. Thresholding was standardized to include all pixels with grayscale values between 2 to 76. Since grayscale values are related to luminosity, an increase in the threshold area represents an increase in darker, or lower density, bone area. The integrated intensity values for the regions were determined with Metamorph. Significant decreases in the intensity of a region indicates a significant reduction in bone density. […]

rats = conditions: rat, in vivo; cited from earlier work

With “PTH(1-25): carboxyl-terminal truncation of PTH(1-34) (SVSEIQLMHNLGKHLNSMERVEWLR; UniProt P01270 32-56, looked up, fragment)” as the substance, how does the “agonist activity of PTH fragment” value (PTH receptor) read?
Its value is “essentially inactive”.

Which results are given for “PTH(1-34): truncated form of parathyroid hormone, residues 1-34; PTH receptor agonist tested in the mouse model (SVSEIQLMHNLGKHLNSMERVEWLRKKLQDVHNF; listed as Homo sapiens)”?
limb guarding [1]: ameloriated pain; also recorded: significantly reduced; spontaneous pain (spontaneous flinching) [1]: ameloriated pain; limb use [2]: ameloriated pain; limb use ([2]; listed as PTH (1-34)): returned to near normal levels; tactile hypersensitivity (evoked pain) [3]: not effected; tactile hypersensitivity (evoked pain) ([3]; listed as PTH (1-34)): did not effect; bone density (optical density of x-ray radiographs) ([4]; normal (sham-injected) animals, daily s.c. PTH(1-34), day 14): some bone density increase; bone density (optical density of x-ray radiographs) ([4]; sarcoma bearing animals, daily s.c. from day 6, day 14): near normal bone density; bone density (optical density of x-ray radiographs) ([4]; sarcoma bearing animals, day 17, versus normal untreated animals): increase in density over that of normal untreated animals

For teriparatide acetate, which “risk of osteosarcoma (a malignant bone tumor)” value (rats) is on record?
The value was “increased risk of osteosarcoma”.
